Test results published in patent US11214803B2, “Modulators of YAP1 expression” (Ionis Pharmaceuticals, Inc., priority 2019, dated 2022).
Strand notation (5' to 3'): a small letter for the sugar, then the base; units joined by * are phosphorothioate-linked, units joined directly phosphodiester-linked; [ ] holds rarer units or linkages, { } end groups; capitals alone tell only the bases. k = constrained ethyl (cEt); [5mC] = 5-methylcytosine; d = 2'-deoxy (DNA)

System: Yap1 mRNA
Assay: Dose-dependent inhibition of human Yap1 in A-431 cells (Example 7, 10,000 cells per well, RTS36584)
Assay type: cell-based
Conditions: free uptake
Procedure, shortened: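 Yap1 mRNA was expressed as percent of untreated control after normalization to total RNA (RIBOGREEN), and IC50 was derived by log/linear linear regression. The read-out used primer-probe set RTS36584 roughly 48 hours after free-uptake dosing of oligonucleotides into A-431 cells (10,000 cells/well).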

[1] = Table 59, 15.6 nM, A-431 cells 10,000 cells per well, 48 hours
[2] = Table 59, 62.5 nM, A-431 cells 10,000 cells per well, 48 hours
[3] = Table 59, 4000.00 nM, A-431 cells 10,000 cells per well, 48 hours
[4] = Table 59, A-431 cells 10,000 cells per well
[5] = 15.6 nM, A-431 cells, 10,000 cells per well, approximately 48 hours
[6] = 62.5 nM, A-431 cells, 10,000 cells per well, approximately 48 hours
[7] = 4000.00 nM, A-431 cells, 10,000 cells per well, approximately 48 hours
[8] = A-431 cells, approximately 48 hours, linear regression on log/linear plot
[9] = Table 58, 15.6 nM, A-431 cells 10,000 cells per well, 48 hours
[10] = Table 58, 62.5 nM, A-431 cells 10,000 cells per well, 48 hours
[11] = Table 58, 4000.00 nM, A-431 cells 10,000 cells per well, 48 hours
[12] = Table 58, A-431 cells 10,000 cells per well
[13] = Table 60, 15.6 nM, A-431 cells 10,000 cells per well, 48 hours
[14] = Table 60, 62.5 nM, A-431 cells 10,000 cells per well, 48 hours
[15] = Table 60, 4000.00 nM, A-431 cells 10,000 cells per well, 48 hours
[16] = Table 60, A-431 cells 10,000 cells per well
[17] = Table 61, 15.6 nM, A-431 cells 10,000 cells per well, 48 hours
[18] = Table 61, 62.5 nM, A-431 cells 10,000 cells per well, 48 hours
[19] = Table 61, 4000.00 nM, A-431 cells 10,000 cells per well, 48 hours
[20] = Table 61, A-431 cells 10,000 cells per well

958572 (kA*kT*kT*dA*dT*dA*dG*dG*d[5mC]*dA*d[5mC]*dT*d[5mC]*k[5mC]*kT*kT; antisense) [compound 958572]
Yap1 mRNA, % UTC [1]: 83 % UTC | Yap1 mRNA, % UTC [2]: 77 % UTC | Yap1 mRNA, % UTC [3]: 22 % UTC | IC50 [4]: 200 nM

958573 (kG*kG*k[5mC]*dA*dA*dA*dT*dT*dA*dT*dA*dG*dG*k[5mC]*kA*k[5mC]; antisense) [compound 958573]
Yap1 mRNA, % UTC [1]: 81 % UTC | Yap1 mRNA, % UTC [2]: 56 % UTC | Yap1 mRNA, % UTC [3]: 8 % UTC | IC50 [4]: 100 nM

958575 (kG*kG*k[5mC]*dT*dA*d[5mC]*dT*dG*dG*d[5mC]*dA*dA*dA*kT*kT*kA; antisense) [compound 958575]
Yap1 mRNA, % UTC [5]: 89 % UTC | Yap1 mRNA, % UTC [6]: 58 % UTC | Yap1 mRNA, % UTC [7]: 20 % UTC | IC50 [8]: 100 nM

958577 (kT*k[5mC]*kT*dG*dT*dG*dG*d[5mC]*dT*dA*d[5mC]*dT*dG*kG*k[5mC]*kA; antisense) [compound 958577]
Yap1 mRNA, % UTC [9]: 81 % UTC | Yap1 mRNA, % UTC [10]: 51 % UTC | Yap1 mRNA, % UTC [11]: 11 % UTC | IC50 [12]: 100 nM

958578 (k[5mC]*kT*kT*dA*dA*dT*d[5mC]*dT*dG*dT*dG*dG*d[5mC]*kT*kA*k[5mC]; antisense) [compound 958578]
Yap1 mRNA, % UTC [13]: 78 % UTC | Yap1 mRNA, % UTC [14]: 52 % UTC | Yap1 mRNA, % UTC [15]: 10 % UTC | IC50 [16]: 100 nM

958579 (kA*kT*k[5mC]*dT*dT*dA*dA*dT*d[5mC]*dT*dG*dT*dG*kG*k[5mC]*kT; antisense) [compound 958579]
Yap1 mRNA, % UTC [17]: 85 % UTC | Yap1 mRNA, % UTC [18]: 52 % UTC | Yap1 mRNA, % UTC [19]: 12 % UTC | IC50 [20]: 100 nM

958580 (kA*kT*kA*dA*dT*d[5mC]*dT*dT*dA*dA*dT*d[5mC]*dT*kG*kT*kG; antisense) [compound 958580]
Yap1 mRNA, % UTC [5]: 95 % UTC | Yap1 mRNA, % UTC [6]: 59 % UTC | Yap1 mRNA, % UTC [7]: 9 % UTC | IC50 [8]: 100 nM

958585 (k[5mC]*kT*k[5mC]*dT*dA*dT*d[5mC]*dA*dA*dG*dG*dT*d[5mC]*k[5mC]*k[5mC]*k[5mC]; antisense) [compound 958585]
Yap1 mRNA, % UTC [5]: 95 % UTC | Yap1 mRNA, % UTC [6]: 71 % UTC | Yap1 mRNA, % UTC [7]: 17 % UTC | IC50 [8]: 200 nM

958587 (kG*kG*kT*dG*dA*d[5mC]*dT*dG*dA*dA*dA*d[5mC]*dT*k[5mC]*kT*kA; antisense) [compound 958587]
Yap1 mRNA, % UTC [9]: 94 % UTC | Yap1 mRNA, % UTC [10]: 49 % UTC | Yap1 mRNA, % UTC [11]: 7 % UTC | IC50 [12]: 100 nM

958588 (kG*kT*kG*dT*dA*d[5mC]*dT*dT*dA*dG*dG*dT*dG*kA*k[5mC]*kT; antisense) [compound 958588]
Yap1 mRNA, % UTC [13]: 93 % UTC | Yap1 mRNA, % UTC [14]: 73 % UTC | Yap1 mRNA, % UTC [15]: 27 % UTC | IC50 [16]: 200 nM

958593 (kG*kG*kT*d[5mC]*dA*dG*dT*dA*d[5mC]*dA*dG*dA*dG*kG*kG*k[5mC]; antisense) [compound 958593]
Yap1 mRNA, % UTC [13]: 99 % UTC | Yap1 mRNA, % UTC [14]: 60 % UTC | Yap1 mRNA, % UTC [15]: 15 % UTC | IC50 [16]: 100 nM

958594 (k[5mC]*kT*k[5mC]*dT*dT*dA*dG*dG*dT*d[5mC]*dT*d[5mC]*d[5mC]*kT*kT*k[5mC]; antisense) [compound 958594]
Yap1 mRNA, % UTC [5]: 91 % UTC | Yap1 mRNA, % UTC [6]: 70 % UTC | Yap1 mRNA, % UTC [7]: 20 % UTC | IC50 [8]: 200 nM

958595 (k[5mC]*k[5mC]*kA*d[5mC]*dA*dT*d[5mC]*dA*dA*dG*dG*d[5mC]*dT*kA*kT*kG; antisense) [compound 958595]
Yap1 mRNA, % UTC [5]: 83 % UTC | Yap1 mRNA, % UTC [6]: 57 % UTC | Yap1 mRNA, % UTC [7]: 16 % UTC | IC50 [8]: 100 nM

958597 (k[5mC]*k[5mC]*k[5mC]*dA*dA*dT*dA*d[5mC]*dA*dA*d[5mC]*d[5mC]*dA*kA*kG*kA; antisense) [compound 958597]
Yap1 mRNA, % UTC [1]: 104 % UTC | Yap1 mRNA, % UTC [2]: 46 % UTC | Yap1 mRNA, % UTC [3]: 20 % UTC | IC50 [4]: 200 nM

958598 (k[5mC]*k[5mC]*k[5mC]*dA*dA*dT*dG*d[5mC]*dT*dA*d[5mC]*d[5mC]*d[5mC]*kA*kA*kT; antisense) [compound 958598]
Yap1 mRNA, % UTC [13]: 93 % UTC | Yap1 mRNA, % UTC [14]: 58 % UTC | Yap1 mRNA, % UTC [15]: 19 % UTC | IC50 [16]: 100 nM

958599 (kT*kT*k[5mC]*dA*dA*dG*dA*dA*dT*dA*d[5mC]*d[5mC]*d[5mC]*kA*kG*kT; antisense) [compound 958599]
Yap1 mRNA, % UTC [17]: 100 % UTC | Yap1 mRNA, % UTC [18]: 74 % UTC | Yap1 mRNA, % UTC [19]: 16 % UTC | IC50 [20]: 200 nM

958600 (kG*kT*kA*dG*dA*dT*d[5mC]*dT*dA*dA*dG*dA*dA*kG*k[5mC]*k[5mC]; antisense) [compound 958600]
Yap1 mRNA, % UTC [5]: 69 % UTC | Yap1 mRNA, % UTC [6]: 44 % UTC | Yap1 mRNA, % UTC [7]: 14 % UTC | IC50 [8]: 50 nM

958605 (k[5mC]*kT*k[5mC]*dA*dG*dA*dT*dG*dT*dA*d[5mC]*d[5mC]*dA*kA*k[5mC]*kG; antisense) [compound 958605]
Yap1 mRNA, % UTC [5]: 76 % UTC | Yap1 mRNA, % UTC [6]: 63 % UTC | Yap1 mRNA, % UTC [7]: 9 % UTC | IC50 [8]: 100 nM

958614 (kG*kT*k[5mC]*dT*dT*dG*dT*dT*d[5mC]*dT*dT*dA*dT*kG*kG*kT; antisense) [compound 958614]
Yap1 mRNA, % UTC [17]: 84 % UTC | Yap1 mRNA, % UTC [18]: 49 % UTC | Yap1 mRNA, % UTC [19]: 13 % UTC | IC50 [20]: 100 nM

958615 (kT*kG*kG*dT*d[5mC]*dT*dT*dG*dT*dT*d[5mC]*dT*dT*kA*kT*kG; antisense) [compound 958615]
Yap1 mRNA, % UTC [5]: 91 % UTC | Yap1 mRNA, % UTC [6]: 60 % UTC | Yap1 mRNA, % UTC [7]: 18 % UTC | IC50 [8]: 100 nM

958616 (kG*kG*kT*dG*dG*dT*d[5mC]*dT*dT*dG*dT*dT*d[5mC]*kT*kT*kA; antisense) [compound 958616]
Yap1 mRNA, % UTC (Table 57, 15.6 nM, A-431 cells 10,000 cells per well, 48 hours): 78 % UTC | Yap1 mRNA, % UTC (Table 57, 62.5 nM, A-431 cells 10,000 cells per well, 48 hours): 49 % UTC | Yap1 mRNA, % UTC (Table 57, 4000.00 nM, A-431 cells 10,000 cells per well, 48 hours): 17 % UTC | IC50 (Table 57, A-431 cells 10,000 cells per well): 100 nM

958623 (kT*kT*kG*dA*dT*dA*dT*dT*d[5mC]*d[5mC]*dG*d[5mC]*dA*kT*kT*kG; antisense) [compound 958623]
Yap1 mRNA, % UTC [1]: 100 % UTC | Yap1 mRNA, % UTC [2]: 62 % UTC | Yap1 mRNA, % UTC [3]: 10 % UTC | IC50 [4]: 100 nM
